Results from ChEMBL document CHEMBL6083204, “Synthesis of a celastrol derivative as a cancer stem cell inhibitor through regulation of the STAT3 pathway for treatment of ovarian cancer” (RSC Med Chem, 2024).
pIC50: −log10 of the molar value. The source made the active and inactive calls. The calls are words filed in the database; no cut-off is given here.

Tests used:
[1] = Cytotoxicity against human IOSE80 cells assessed as inhibition of cell growth incubated for 72 hrs by MTT assay; format: toxicity, cell-based
SK-OV-3 [2] = test: Antitumor activity against human SK-OV-3 cells xenografted in BALB/c mouse assessed as reduction in tumor volume at 5 mg/kg,ip administrated for 21 consecutive days relative to control; format: functional; parameters: scale not given: the % may be the effect or the level left
SK-OV-3 [3] = test: Induction of apoptosis in human SK-OV-3 cells assessed as increase in caspase-8 activity at 0.4 uM incubated for 24 hrs by flow cytometry (reference value: 2.5 %); format: functional
SK-OV-3 [4] = test: Antiproliferative activity against human SK-OV-3 cells assessed as decrease in ALDH positive cells at 0.4 uM incubated for 24 hrs by ALDEFLUOR staining based flow cytometry (reference value: 3.83 %); format: functional; parameters: scale not given: the % may be the effect or the level left
SK-OV-3 [5] = test: Induction of cell cycle arrest in human SK-OV-3 cells assessed as accumulation of cells at S phase at 0.4 uM incubated for 24 hrs by BrdU staining based flow cytometry (reference value: 33.6 %); format: functional
Mitochondrial membrane [6] = test: Induction of mitochondrial membrane potential loss in human SK-OV-3 cells at 0.1 uM incubated for 24 hrs by JC-1 staining based flow cytometry (reference value: 73.6 %)
A2780 [7] = test: Induction of apoptosis in human A2780 cells assessed as viable cells at 0.2 uM incubated for 24 hrs by Annexin V-FITC/7-AAD staining based flow cytometry (reference value: 95 %); format: functional; details: read-out: Activity
A2780 [8] = test: Inhibition of human A2780 cells spheroid formation assessed as reduction in spheroid number at 0.1 to 0.4 uM incubated for 10 days by inverted microscopic analysis; format: functional, cell-based; details: dose 0.1-0.4 µM, time 10.0 day
SK-OV-3 [9] = test: Induction of cell cycle arrest in human SK-OV-3 cells assessed as accumulation of cells at S phase at 0.2 uM incubated for 24 hrs by BrdU staining based flow cytometry (reference value: 33.6 %); format: functional
Mitochondrial membrane [10] = test: Induction of mitochondrial membrane potential loss in human SK-OV-3 cells at 0.2 uM incubated for 24 hrs by JC-1 staining based flow cytometry (reference value: 73.6 %)
SK-OV-3 [11] = test: Induction of cell cycle arrest in human SK-OV-3 cells assessed as accumulation of cells at S phase at 0.8 uM incubated for 24 hrs by BrdU staining based flow cytometry (reference value: 33.6 %); format: functional
SK-OV-3 [12] = test: Induction of cell cycle arrest in human SK-OV-3 cells assessed as reduction of Cyclin D1 expression at 0.2 uM incubated for 24 hrs by flow cytometry (reference value: 93.8 %); format: functional; parameters: scale not given: the % may be the effect or the level left
SK-OV-3 [13] = test: Induction of apoptosis in human SK-OV-3 cells assessed as late apoptotic cells at 0.4 uM incubated for 24 hrs by Annexin V-FITC/7-AAD staining based flow cytometry (reference value: 3.7 %); format: functional
A2780 [14] = test: Induction of cell cycle arrest in human A2780 cells assessed as accumulation of cells at S phase at 0.4 uM incubated for 24 hrs by BrdU staining based flow cytometry (reference value: 51.6 %); format: functional
[15] = Toxicity in BALB/c mouse xenografted with human SK-OV-3 cells assessed as pathological change in kidney at 2 to 5 mg/kg,ip administrated for 21 consecutive days by hematoxylin and eosin staining based assay; format: organism-based; details: in vivo, dose 2-5 mg/kg
SK-OV-3 [16] = test: Antitumor activity against human SK-OV-3 cells xenografted in BALB/c mouse assessed as appearance of shrunken nucleus in tumor tissue at 2 to 5 mg/kg,ip administrated for 21 consecutive days by hematoxylin and eosin staining based assay; format: functional, organism-based; details: dose 2-5 mg/kg
SK-OV-3 [17] = test: Antiproliferative activity against human SK-OV-3 cells assessed as decrease in ALDH positive cells at 0.2 uM incubated for 24 hrs by ALDEFLUOR staining based flow cytometry (reference value: 3.83 %); format: functional; parameters: scale not given: the % may be the effect or the level left
OVCAR-3 = test: Antiproliferative activity against human OVCAR-3 cells assessed as inhibition of cell growth incubated for 72 hrs by MTT assay; format: functional, cell-based; details: OVCAR-3, 72 h
A2780 [18] = test: Induction of cell cycle arrest in human A2780 cells assessed as reduction of Cyclin D1 expression at 0.8 uM incubated for 24 hrs by flow cytometry (reference value: 92.5 %); format: functional; parameters: scale not given: the % may be the effect or the level left
A2780 [19] = test: Induction of apoptosis in human A2780 cells assessed as late apoptotic cells at 0.4 uM incubated for 24 hrs by Annexin V-FITC/7-AAD staining based flow cytometry (reference value: 2.1 %); format: functional
A2780 [20] = test: Induction of cell cycle arrest in human A2780 cells assessed as reduction of CDK4 expression at 0.4 uM incubated for 24 hrs by flow cytometry (reference value: 93.6 %); format: functional; parameters: scale not given: the % may be the effect or the level left
[21] = target: Signal transducer and activator of transcription 3 (Homo sapiens) (UniProt P40763); test: Inhibition of STAT3 in human A2780 cells assessed as downregulation of STAT3 phosphorylation at Tyr705 residue in nuclei at 0.2 uM incubated for 24 hrs by Hoechst33342 staining based immunofluorescence assay; format: cell-based
Chain of Signal transducer and activator of transcription 3 (Homo sapiens) (P40763 whole entry): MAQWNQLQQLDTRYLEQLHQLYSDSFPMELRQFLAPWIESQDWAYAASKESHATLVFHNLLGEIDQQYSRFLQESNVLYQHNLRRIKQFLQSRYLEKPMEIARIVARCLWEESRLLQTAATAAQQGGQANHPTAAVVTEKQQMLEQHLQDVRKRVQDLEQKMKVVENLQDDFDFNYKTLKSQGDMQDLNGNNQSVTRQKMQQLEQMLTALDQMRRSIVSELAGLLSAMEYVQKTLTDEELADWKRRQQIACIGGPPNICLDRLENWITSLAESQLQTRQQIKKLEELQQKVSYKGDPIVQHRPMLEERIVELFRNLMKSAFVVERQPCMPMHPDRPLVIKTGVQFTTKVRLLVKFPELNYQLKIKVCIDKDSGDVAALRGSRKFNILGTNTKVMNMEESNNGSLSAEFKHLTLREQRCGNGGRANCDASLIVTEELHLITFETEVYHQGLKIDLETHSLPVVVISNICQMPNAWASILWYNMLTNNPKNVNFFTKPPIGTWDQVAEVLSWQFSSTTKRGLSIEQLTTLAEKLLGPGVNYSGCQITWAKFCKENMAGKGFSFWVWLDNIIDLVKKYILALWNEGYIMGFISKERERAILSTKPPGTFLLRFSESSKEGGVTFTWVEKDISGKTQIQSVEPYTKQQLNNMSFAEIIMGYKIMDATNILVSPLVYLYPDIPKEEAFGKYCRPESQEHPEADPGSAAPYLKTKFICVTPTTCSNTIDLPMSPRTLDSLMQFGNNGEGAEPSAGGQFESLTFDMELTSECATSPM

SK-OV-3 [22] = test: Induction of cell cycle arrest in human SK-OV-3 cells assessed as accumulation of cells at G0/G1 phase at 0.4 uM incubated for 24 hrs by BrdU staining based flow cytometry (reference value: 59.8 %); format: functional
SK-OV-3 [23] = test: Induction of apoptosis in human SK-OV-3 cells assessed as necrotic cells at 0.2 uM incubated for 24 hrs by Annexin V-FITC/7-AAD staining based flow cytometry (reference value: 0.6 %); format: functional
SK-OV-3 [24] = test: Induction of ROS production in human SK-OV-3 cells assessed as increase in fluorescence intensity incubated for 24 hrs by DCFH-DA staining based flow cytometry; format: functional, cell-based
Mitochondrial membrane [25] = test: Induction of mitochondrial membrane potential loss in human A2780 cells at 0.1 uM incubated for 24 hrs by JC-1 staining based flow cytometry (reference value: 81 %)
A2780 [26] = test: Antiproliferative activity against human A2780 cells assessed as decrease in CD44 positive CD24 negative cells expression at 0.4 uM incubated for 24 hrs by FITC staining based flow cytometry (reference value: 28.13 %); format: functional; parameters: scale not given: the % may be the effect or the level left
SK-OV-3 [27] = test: Induction of cell cycle arrest in human SK-OV-3 cells assessed as reduction of Cyclin D1 expression at 0.8 uM incubated for 24 hrs by flow cytometry (reference value: 93.8 %); format: functional; parameters: scale not given: the % may be the effect or the level left
A2780 [28] = test: Induction of cell cycle arrest in human A2780 cells assessed as reduction of CDK2 expression at 0.8 uM incubated for 24 hrs by flow cytometry (reference value: 92.5 %); format: functional; parameters: scale not given: the % may be the effect or the level left
A2780 [29] = test: Induction of apoptosis in human A2780 cells assessed as necrotic cells at 0.2 uM incubated for 24 hrs by Annexin V-FITC/7-AAD staining based flow cytometry (reference value: 1 %); format: functional
[30] = target: Tyrosine-protein kinase JAK2 (Homo sapiens) (UniProt O60674); test: Inhibition of JAK2 in human SK-OV-3 cells assessed as downregulation of JAK2 phosphorylation at 0.1 to 0.4 uM incubated for 24 hrs by Western blotting analysis; format: cell-based; details: dose 0.1-0.4 µM
Chain of Tyrosine-protein kinase JAK2 (Homo sapiens) (O60674 whole entry): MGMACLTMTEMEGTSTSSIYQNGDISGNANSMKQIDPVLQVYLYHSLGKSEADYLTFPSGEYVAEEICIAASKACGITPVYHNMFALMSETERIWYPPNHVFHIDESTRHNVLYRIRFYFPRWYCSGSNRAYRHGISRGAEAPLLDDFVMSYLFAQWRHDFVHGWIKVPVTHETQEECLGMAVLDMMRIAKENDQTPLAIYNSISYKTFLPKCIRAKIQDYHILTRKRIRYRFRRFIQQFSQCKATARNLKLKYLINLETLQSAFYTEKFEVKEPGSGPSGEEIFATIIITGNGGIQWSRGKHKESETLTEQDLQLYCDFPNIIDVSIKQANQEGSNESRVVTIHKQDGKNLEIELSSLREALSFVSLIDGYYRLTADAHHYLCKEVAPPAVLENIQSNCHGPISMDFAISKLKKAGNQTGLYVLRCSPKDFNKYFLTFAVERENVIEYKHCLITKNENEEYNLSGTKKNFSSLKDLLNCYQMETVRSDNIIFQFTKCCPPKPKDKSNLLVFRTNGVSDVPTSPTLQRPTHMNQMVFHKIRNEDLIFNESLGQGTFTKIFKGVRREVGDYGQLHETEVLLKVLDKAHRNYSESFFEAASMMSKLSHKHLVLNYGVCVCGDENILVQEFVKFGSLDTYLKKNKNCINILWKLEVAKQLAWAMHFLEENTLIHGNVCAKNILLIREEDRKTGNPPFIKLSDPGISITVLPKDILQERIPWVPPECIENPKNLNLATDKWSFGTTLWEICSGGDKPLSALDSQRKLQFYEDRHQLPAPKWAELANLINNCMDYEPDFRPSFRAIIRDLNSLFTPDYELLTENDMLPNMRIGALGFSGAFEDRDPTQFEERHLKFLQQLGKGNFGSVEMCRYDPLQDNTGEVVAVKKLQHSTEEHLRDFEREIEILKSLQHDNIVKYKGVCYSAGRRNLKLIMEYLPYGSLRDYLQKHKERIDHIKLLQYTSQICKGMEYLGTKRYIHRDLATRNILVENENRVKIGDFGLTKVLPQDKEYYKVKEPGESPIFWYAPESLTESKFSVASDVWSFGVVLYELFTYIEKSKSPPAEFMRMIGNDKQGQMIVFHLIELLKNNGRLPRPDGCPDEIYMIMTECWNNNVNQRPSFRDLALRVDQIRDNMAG

[31] = target: Signal transducer and activator of transcription 3 (Homo sapiens) (UniProt P40763); test: Inhibition of STAT3 in human SK-OV-3 cells assessed as downregulation of STAT3 phosphorylation at Tyr705 residue incubated for 24 hrs by Western blotting analysis; format: cell-based

Activity (Mitochondrial membrane [6]): 70.7%
Activity (Mitochondrial membrane [10]): 49.6%
pIC50 (OVCAR-3): 6.60
inhibition [21]: Active
Activity (Mitochondrial membrane [25]): 56.4%
inhibition [30]: Active
inhibition [31]: Dose-dependent-effect
SMILES: CC1=C(O)C(=O)C=C2C1=CC=C1[C@@]2(C)CC[C@@]2(C)[C@@H]3C[C@](C)(C(=O)N4CCNCC4)CC[C@]3(C)CC[C@]12C
IC50 at 72 h [1]: 1010 nM
Activity (SK-OV-3 [2]): 74.58%
Activity (SK-OV-3 [3]): 36.7%
Activity (SK-OV-3 [4]): 1.3%
Activity (SK-OV-3 [5]): 42.9%
viability at 0.2 µM (A2780 [7]): 89.3%
inhibition (A2780 [8]): Active
Activity (SK-OV-3 [9]): 33.8%
Activity (SK-OV-3 [11]): 37.2%
Activity (SK-OV-3 [12]): 90.3%
Activity (SK-OV-3 [13]): 11.5%
Activity (A2780 [14]): 25.2%
Activity [15]: Non-toxic
Activity (SK-OV-3 [16]): Active
Activity (SK-OV-3 [17]): 2.07%
Activity (A2780 [18]): 15%
Activity (A2780 [19]): 15%
Activity (A2780 [20]): 17.2%
Activity (SK-OV-3 [22]): 49.2%
Activity (SK-OV-3 [23]): 0.7%
Activity (SK-OV-3 [24]): Dose-dependent-effect
Activity (A2780 [26]): 2.93%
Activity (SK-OV-3 [27]): 53.1%
Activity (A2780 [28]): 8.6%
Activity (A2780 [29]): 1%
